Experimental data published in patent US20200022967A1, “Use of 2-carboxamide cycloamino urea derivatives in the treatment of EGFR dependent diseases or diseases that have acquired resistance to agents that target EGFR family members” (Novartis AG, priority 2010, published 2020).

Assays:
HBCx-5 xenograft tumor = experiment: HBCx-5 breast cancer xenograft, antitumor activity (Example 5); assay type: in vivo, mice; conditions: capecitabine 40 mg/kg single agent p.o., five times per week, two cycles; p<0.001
Procedure: Compound A was suspended at mg/ml in 0.5% methylcellulose (Sigma Aldrich, St. Louis, Mo.). It was homogenized by stirring vortexing and sonication. The suspension was stored at 4° C. for 7 days protected from light. […] Stock solution at 21 mg/ml was diluted just before administration at 1 mg/ml with sterile water for injection. Capecitabine (Xeloda®, Roche) at […] was kept at 4° C. protected from light. Capecitabine pellets were crushed and suspended in NaCl 0.9%.
Dose was body weight adjusted at each injection.
Capecitabine was administered by oral gavage (p.o.) at […], five times per week for two weeks (i.e., five consecutive dosing days/week). After a one week rest, a second treatment cycle was performed.

[1] = Body weight loss in HBCx-5 xenograft study (Example 5); conditions: capecitabine single agent; significant and transient
Procedure: Experiments were performed in female HSD: athymic nude-Foxn1nu mice approximately 8-10 weeks of age and weighing approximately 19-25 grams. The mice were allowed to acclimate with access to food and water ad libitum for 6 days prior to the study. When body weight loss reaches 15% compared to the first day of treatment, DietGel® was provided to the animals.
The mice were divided into five groups each comprising ten mice. Treatments were initiated 34 days post-implantation of the HBCx-5 xenograft tumor. […] For xenograft implantation, the mice were anesthetized with 100 mg/kg ketamine hydrochloride and 10 mg/kg xylazine. Using asceptic technique, the mice were grafted in interscapular with 3 mm on 3 mm tumor fragment. […] Tumors were measured with calipers three times per week at the start of dosing. Tumors were calculated using the formula: =width^2×length/2. Tumor size and body weight were measured three times per week during the treatment period. The planned endpoints for the experiment were a treatment phase of six weeks and no follow-up phase.
Antitumor activity is expressed as T/C % (mean change of tumor volume of treated animals/mean change of tumor volume of control animals)×100. Tumor volume and relative body weight were used for statistical analysis. Group comparisons were performed using a Mann Whitney non parametric test between treated group and control group.

NCI-N87 tumors = experiment: NCI-N87 xenograft in CB17 SCID mice, Compound A alone and with lapatinib (Example 6); assay type: in vivo; conditions: for Median TTE: control 26.2, vs G1 ***; for Mean Tumor Volume (no. animals, n) Day 59: n=1
Procedure: The NCI-N87 cells were harvested with 5× trypsin. Eight days after tumor implantation (on Day 1 of the study), mice with an individual tumor volume of 88-196 mm^3 were sorted into 10 groups of ten mice with a group mean tumor volume of 143-149 mm^3.
Where applicable, data is presented as mean±SEM. Each animal was euthanized when its neoplasm reached the endpoint volume (1000 mm^3), or on the last day of the study (Day 59). Time to endpoint (TTE) is calculated by the equation: TTE=(log10(endpoint volume)−b)/m, where TTE is expressed in days, endpoint volume is in mm3, b is the intercept and m is the slope of the line obtained by linear regression of a log-transformed tumor growth data set. Treatment efficacy was determined from Tumor Growth Delay (TGD), which was defined as the increase in the median time to endpoint (TTE) for a treatment group compared to the control group (TGD=T−C), expressed in days, or as a percentage of the median TTE of the control group (% TGD=((T−C)/C)×100), wherein T=median TTE for a treatment group and C=median TTE for the designated control group.
Statistical and graphical analyses was performed with Prism 3.03 (GraphPad) for Windows. For all tests, the level of significance of differences was done using ANOVA, with Bartlett's test; and a post-hoc Dunnett's multiple comparison test compared the mean change for each drub-treated group to the mean for Group 1. Survival was analyzed by the Kaplan-Meier method. The logrank test was employed to analyze the significance of the difference between the overall survival experiences of two groups, based on time to endpoint (TTE) values. The two-tailed statistical analyses were conducted at P=0.05. Prism summarizes test results as not significant (ns) at P>0.05, significant (symbolized by “*”) at 0.01<P<0.05, very significant (symbolized by “**”) at 0.001<P<0.01, and extremely significant (symbolized by “***”) at P<0.001.

[2] = Body weight nadir and deaths in NCI-N87 lapatinib study (Example 6)
Procedure: Treatments started eight days post tumor cell implantation and lasted for 59 consecutive days or until tumor volume=1000 mm^3. […] For the b.i.d. dosing schedule, the first dose was given p.m. on Day 1 and last dose a.m. on Day 22. […] Body weights were recorded on Days 1-5, on each treatment day (except weekends), and twice weekly thereafter until end of the study.

[3] = Group 4 (10 animals): lapatinib 50 mg/kg p.o. b.i.d.
[4] = Group 4: lapatinib 50 mg/kg p.o. b.i.d.
[5] = Group 5 (10 animals): lapatinib 100 mg/kg p.o. once daily
[6] = Group 5: lapatinib 100 mg/kg p.o. once daily
[7] = Group 6 (9 animals): lapatinib 150 mg/kg p.o. once daily
[8] = Group 6: lapatinib 150 mg/kg p.o. once daily

## CCCCCOC(=O)Nc1nc(=O)n([C@@H]2O[C@H](C)[C@@H](O)[C@H]2O)cc1F [Capecitabine, reference compound]
HBCx-5 xenograft tumor
  T/C: 9.03%
[1]
  body weight loss: 9.1%

## CS(=O)(=O)CCNCc1ccc(-c2ccc3ncnc(Nc4ccc(OCc5cccc(F)c5)c(Cl)c4)c3c2)o1 [lapatinib]
NCI-N87 tumors; [3]
  Regressions CR: CR: 0
  Regressions PR: PR: 0,
NCI-N87 tumors; Group 4 (10 animals): lapatinib 50 mg/kg p.o. b.i.d. for 21 days
  Median TTE: 47.7 days
NCI-N87 tumors; [4]
  % TGD: 66%
  Mean Tumor Volume (no. animals, n) Day 59: 608 (1)
NCI-N87 tumors; [5]
  Regressions CR: CR: 0
  Regressions PR: PR: 0,
NCI-N87 tumors; [6]
  % TGD: 82%
  T-C: 16.4 days
  Mean Tumor Volume (no. animals, n) Day 59: 750 (1)
NCI-N87 tumors; [7]
  Regressions CR: CR: 0
  Regressions PR: PR: 1,
NCI-N87 tumors; Group 6 (9 animals): lapatinib 150 mg/kg p.o. once daily for 21 days
  Median TTE: 50.6 days
NCI-N87 tumors; [8]
  % TGD: 63%
  T-C: 24.4 days
[2]; [3]
  Deaths (TR/NTR): 0
[2]; [5]
  Deaths (TR/NTR): 0
[2]; [8]
  Deaths NTR = non-treatment related: NTR: 1
  Deaths TR = treatment-related: TR: 0
